US20090156565A1, “COMPOSITION AND USE THEREOF IN ENHANCING A THERAPEUTIC EFFECT OF AN ANTIEPILEPTIC DRUG” (priority 2004, published 2009)
Read-outs that look alike come from different tables or passages of the source.

Experiments:
[1] = tested on: maximal electricroshock-induced seizures; settings: cited from earlier work; for protective activity of clonazepam against maximum electroshock: co-administration
[2] = tested on: pilocarpine induced status-epilepticus; experiment: Pilocarpine induced status-epilepticus in rats, mifepristone pretreatment, repeated diazepam doses until seizures stop; assay type: in vivo, Adult male Sprague-Dawley rats; settings: for cumulative diazepam dose required to stop behavioral seizures (mean ±SEM): diazepam 6 mg/kg 1 h after SE, then 3 mg/kg every two hours
Procedure: Mifepristone is a yellow powdery substance and is available commercially (Sigma, St. Louis, Mo.). Adult male Sprague-Dawley rats were implanted with electrodes in CA1 and frontal cortex. After one week of recovery, rats were put in recording cages and connected to EEG monitoring system for continuous video-EEG recording. Rats were then treated with mifepristone (25 mg/kg body weight) one hour before the pilocarpine injection. Thirty minutes later rats were treated with scopalamine (1 mg/kg body weight) to reduce peripheral side effects of pilocarpine. Rats were injected with pilocarpine (385 mg/kg body weight) 30 minutes after the scopalamine injection to induce status-epilepticus. One hour after declared status-epilepticus, rats were treated with diazepam (6 mg/kg) to stop the seizures. Every two hours rats were monitored for signs of behavioral seizures and if required they were injected with 3 mg/kg diazepam until they completely stop seizing. The process was repeated until the rats completely stopped seizing. […] This example was presented by inventors in an article titled “Effects of Glucocorticoid Receptor Activity on Diazepam Efficacy in Terminating Status-Epilepticus in Adult Rats,” Epilepsia Vol. 45, Suppl. 7, page 146, October, 2004.
The histogram represents mean (±SEM) cumulative diazepam dose (mg/kg body weight) required to stop behavioral seizures.

[3] = tested on: pilocarpine induced status-epilepticus; experiment: Pilocarpine induced status-epilepticus in rats, mifepristone pretreatment, single diazepam dose, behavioral seizures (Racine stage); assay type: in vivo; settings: not pretreated with mifepristone; single diazepam dose 7.5 mg/kg given 30 minutes after status-epilepticus; n=5
[4] = tested on: status epilepticus; experiment: Mifepristone given 15 minutes after onset of SE, diazepam after 1 hour, hourly monitoring for behavioral seizures; assay type: in vivo, rats; settings: for rats that stopped seizing: 5 and 6 hours after DZ treatment
Procedure: In this experiment, mifepristone was given 15 minutes after onset of SE, but prior to administering the first dose of diazepam (DZ). Diazepam (7.5 mg/kg) was given after 1 hour of onset of SE. After DZ treatment, rats were monitored hourly for behavioral seizures.

[5] = tested on: pilocarpine induced status-epilepticus; experiment: EEG (cortex and hippocampus) 24 hours after pilocarpine injection; assay type: in vivo; settings: rats that received mifepristone versus rats without treatment

With CC/C(=C(\c1ccccc1)c1ccc(OCCN(C)C)cc1)c1ccccc1 [TXF, tamoxifen] as the molecule, how does the “protective activity of clonazepam against maximum electroshock” value ([1]; female mice) read?
Its value is “improved”.

For CN1C(=O)CN=C(c2ccccc2)c2cc(Cl)ccc21 [diazepam], which “cumulative diazepam dose required to stop behavioral seizures (mean ±SEM)” value ([2]; rats that did not receive mifepristone, ±0.5, n=20) is on record?
The value was 10.2 mg/kg.

What about the “rats that stopped seizing by 4 hours” value [3] of the same molecule?
Its value is 1/5.

What about the “rats that stopped seizing” value ([4]; diazepam 7.5 mg/kg, rats not receiving mifepristone) of the same molecule?
Its value is 33%.

With CC(=O)O[C@]1(C(C)=O)CC[C@H]2[C@@H]3C=C(Cl)C4=CC(=O)[C@@H]5C[C@@H]5[C@]4(C)[C@H]3CC[C@@]21C [CYP, cyproterone acetate] as the molecule, how does the “protective activity of clonazepam against maximum electroshock” value ([1]; male mice) read?
The value was “improved”.

Which “lower cumulative diazepam dose to terminate behavioral seizures compared to rats not pretreated with mifepristone” value ([2]; mifepristone pretreatment before pilocarpine, P<0.0005) does the source give for CC#C[C@]1(O)CC[C@H]2[C@@H]3CCC4=CC(=O)CCC4=C3[C@@H](c3ccc(N(C)C)cc3)C[C@@]21C [mifepristone, 17-beta-hydroxy-11-beta-(4-dimethyl-aminophenyl)-17-alpha(1-propynyl)-estra-4,9-dien-3-one] here?
Its value is 26.5%.

What about the “cumulative diazepam dose required to stop behavioral seizures (mean ±SEM)” value ([2]; rats pretreated with mifepristone 25 mg/kg one hour before pilocarpine, ±0.41, n=14, p<0.0005) of the same molecule?
Its value is 7.5 mg/kg.

And the “frequency of spike-wave discharges and seizure recurrence” value [5]?
Its value is “lower frequency of spike-wave discharges and seizure recurrence”.

And the “rats that had stopped seizing, compared to rats that did not receive mifepristone” value ([4]; 3 to 6 hours after DZ treatment, mifepristone 15 minutes after onset of SE, diazepam 7.5 mg/kg 1 hour after onset)?
The value was “significantly more”.

And the “rats that stopped seizing” value ([4]; mifepristone 15 minutes after onset of SE plus diazepam 7.5 mg/kg, p<0.018, Kaplan-Meier)?
The value was 100%.

What about the “effect on protective action of antiepileptic drugs against maximal electroshock-induced seizures” value ([1]; in combination with clonazepam, carbamazepine, phenobarbital, mice) of the same molecule?
The value was “failed to affect their protective action”.

And the “effect on electrically-induced seizures” value ([1]; used alone, mice)?
Its value is “no effect”.
